# Laboratory results taken from patent publication US20040101576A1, “IMMUNOPOTENTIATORS” (priority 1997, published 2004).
# System: Langerhans' cells
# Conditions: antigen (trinitrobenzenesulfonic acid, 1 mg/ml) added, Langerhans' cells UV irradiated, 3 mM glutathione added during irradiation; antigen only 17,500, antigen + UV 5,000 (FIG. 1)
# Protocol: An antigen (trinitrobenzenesulfonic acid, 1 mg/ml) was added to Langerhans' cells and, after cleaning, they were mixed and cultured with T cells obtained by purifying lymph gland cell floating fluid with a nylon fiber column (Wako).
smiles,measurement,value
N[C@@H](CCC(=O)N[C@@H](CS)C(=O)NCC(=O)O)C(=O)O [glutathione],multiplication of the T cells,"11,000"
